From patent US8748482B2, “Lubiprostone crystal, the use and the method for the preparation thereof” (Shanghai Techwell Biopharmaceutical Co., Ltd, priority 2008, dated 2014)

Assay: Comparison of the stability: samples sealed and placed at 40° C. for 7 days, then impurities analysed
Assay type: physicochemical
Conditions: for Initial Product Amount: before storage (initial); for Product Amount (after 7 days at 40° C.): sealed
Experimental: In the present Example, the stabilities of the oily lubiprostone (prepared according to Example 1) and the final products of Example 1 and Example 2 (crystal samples) were tested, and the results of the tests were compared. Oily lubiprostone, the sample of Example 1, and the sample of Example 2 were separately sealed and placed at 40° C. for 7 days. After completion, the amount of the impurities was analyzed.

Structure (SMILES) | Initial Product Amount [%] | Product Amount (after 7 days at 40° C.) [%] | stability (conclusion in words) (based on the data of Table 2 (sealed, 40° C., 7 days))
CCCCC(F)(F)[C@@]1(O)CCC2[C@@H](CC(=O)[C@@H]2CCCCCCC(=O)O)O1 (single isomer, unassigned; (-)) [Oily lubiprostone, reference compound] | 99.9 | 95.8 | –
CCCCC(F)(F)[C@@]1(O)CCC2[C@@H](CC(=O)[C@@H]2CCCCCCC(=O)O)O1 (single isomer, unassigned; (-)) [Example 2] | 100.0 | 99.9 | –
CCCCC(F)(F)[C@@]1(O)CCC2[C@@H](CC(=O)[C@@H]2CCCCCCC(=O)O)O1 (single isomer, unassigned; (-)) [lubiprostone crystal] | – | – | excellent stability
CCCCC(F)(F)[C@@]1(O)CCC2[C@@H](CC(=O)[C@@H]2CCCCCCC(=O)O)O1 (single isomer, unassigned; (-)) [Example 1] | 100.0 | 99.9 | –
